Like-named read-outs stand apart in the source and are kept apart here.
What was measured:
[1] = biological target: T1, human TRPC5 (Homo sapiens, UniProt Q9UL62); test: Whole-cell patch clamp of TRPC5-expressing (Tet+) HEK 293 cells; type: cell-based
T1 construct: expressed in transfected cells
T1 sequence (Q9UL62 1-973): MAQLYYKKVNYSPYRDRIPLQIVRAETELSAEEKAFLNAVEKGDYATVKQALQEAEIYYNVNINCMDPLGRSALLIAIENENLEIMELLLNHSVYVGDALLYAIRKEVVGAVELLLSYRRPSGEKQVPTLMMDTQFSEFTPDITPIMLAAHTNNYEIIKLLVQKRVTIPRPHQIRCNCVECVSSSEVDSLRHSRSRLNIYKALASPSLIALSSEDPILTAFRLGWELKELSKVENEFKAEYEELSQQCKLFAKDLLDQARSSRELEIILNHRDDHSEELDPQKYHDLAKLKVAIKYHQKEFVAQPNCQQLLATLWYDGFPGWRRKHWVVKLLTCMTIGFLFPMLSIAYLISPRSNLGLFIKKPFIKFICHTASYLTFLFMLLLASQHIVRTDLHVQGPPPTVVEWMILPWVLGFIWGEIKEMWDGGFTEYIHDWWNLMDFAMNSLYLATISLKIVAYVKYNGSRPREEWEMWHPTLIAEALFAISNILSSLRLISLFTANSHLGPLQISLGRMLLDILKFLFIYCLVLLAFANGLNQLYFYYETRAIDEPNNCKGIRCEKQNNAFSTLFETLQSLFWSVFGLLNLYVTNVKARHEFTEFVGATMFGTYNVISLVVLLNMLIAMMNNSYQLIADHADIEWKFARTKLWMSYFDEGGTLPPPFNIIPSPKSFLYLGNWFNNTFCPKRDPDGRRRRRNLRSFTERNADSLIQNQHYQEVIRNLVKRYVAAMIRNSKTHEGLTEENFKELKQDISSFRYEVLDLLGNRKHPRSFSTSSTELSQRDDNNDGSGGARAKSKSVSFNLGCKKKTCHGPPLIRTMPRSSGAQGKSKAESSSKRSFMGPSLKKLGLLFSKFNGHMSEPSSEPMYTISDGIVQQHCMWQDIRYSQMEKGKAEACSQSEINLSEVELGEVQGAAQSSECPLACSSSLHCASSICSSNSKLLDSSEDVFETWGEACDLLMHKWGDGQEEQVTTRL

[2] = biological target: T1, human TRPC5; test: Gd3+-evoked Ca2+ entry in TRPC5-expressing (Tet+) HEK 293 cells; type: cell-based; settings: for IC50: TRPC5 (Tet+) HEK 293, 50 μM Gd3+, fluo-4, 30 min pretreatment, read-out: IC50, inhibition of Gd3+-evoked Ca2+ entry; for effect on Gd3+-evoked Ca2+ entry (natural flavonoid screen): XRhod-1
[3] = system: 3T3-L1 cells; settings: cited from earlier work
[4] = biological target: endogenous TRPC5-containing channels (Mus musculus, UniProt Q9QX29); test: Ca2+ entry through endogenous channels in differentiated 3T3-L1 cells; type: cell-based; settings: estimated
Experimental: The 3T3‐L1 cell line was obtained from the American Type Culture Collection and cultured in DMEM‐F12 containing 10% fetal calf serum (FCS), 100 U·mL^−1 penicillin and 100 μg·mL^−1 streptomycin. To induce differentiation, cells were grown to confluence, and 2 days post‐confluence, the medium was changed to a medium containing 5 μg·mL^−1 insulin, 0.25 μM dexamethasone and 0.5 mM IBMX with 10% FCS and antibiotics. After 48 h, medium was changed to a maintenance medium containing 5 μg·mL^−1 insulin, 10% FCS and antibiotics. Cells were fed with fresh maintenance medium every 2 days until the day of experiments. For all experiments, cells were differentiated for 12–16 days.
Induced (Tet+) and non‐induced (Tet−) cells were plated in poly‐d‐lysine‐coated black 96‐well plates (Corning, Corning, NY, USA) at a confluence of 90% 24 h before experimentation. […] Cells were washed three times with SBS before measurements were made at room temperature (21 ± 2 °C) on a 96‐well fluorescence plate reader (FlexStation II^384, Molecular Devices, Sunnyvale, CA, USA). […] Readings were made every 10 s. Fura‐2 measurements are shown as the fluorescence (F) ratio or change (Δ) in this ratio. Fluo‐4 and XRhod‐1 measurements are shown as absolute fluorescence in arbitrary units or changes in this fluorescence (ΔF). […]

[5] = biological target: T1, human TRPC5; test: Outside-out patch recordings from TRPC5 Tet+ cells; type: cell-based; settings: 10 μM compound, 100 μM Gd3+
[6] = system: Cav1.2 channels; parameters: method as in Saponara et al., 2011; settings: smooth muscle; ref Saponara et al., 2011; cited from earlier work
[7] = system: BKCa channels; parameters: method as in Cogolludo et al., 2007; Xu et al., 2008b; settings: ref Cogolludo et al., 2007; Xu et al., 2008b; cited from earlier work
[8] = system: GABA-evoked ionic currents; parameters: method as in Goutman et al., 2003; settings: ref Goutman et al., 2003; cited from earlier work

Sequence of endogenous TRPC5-containing channels (Q9QX29 whole entry): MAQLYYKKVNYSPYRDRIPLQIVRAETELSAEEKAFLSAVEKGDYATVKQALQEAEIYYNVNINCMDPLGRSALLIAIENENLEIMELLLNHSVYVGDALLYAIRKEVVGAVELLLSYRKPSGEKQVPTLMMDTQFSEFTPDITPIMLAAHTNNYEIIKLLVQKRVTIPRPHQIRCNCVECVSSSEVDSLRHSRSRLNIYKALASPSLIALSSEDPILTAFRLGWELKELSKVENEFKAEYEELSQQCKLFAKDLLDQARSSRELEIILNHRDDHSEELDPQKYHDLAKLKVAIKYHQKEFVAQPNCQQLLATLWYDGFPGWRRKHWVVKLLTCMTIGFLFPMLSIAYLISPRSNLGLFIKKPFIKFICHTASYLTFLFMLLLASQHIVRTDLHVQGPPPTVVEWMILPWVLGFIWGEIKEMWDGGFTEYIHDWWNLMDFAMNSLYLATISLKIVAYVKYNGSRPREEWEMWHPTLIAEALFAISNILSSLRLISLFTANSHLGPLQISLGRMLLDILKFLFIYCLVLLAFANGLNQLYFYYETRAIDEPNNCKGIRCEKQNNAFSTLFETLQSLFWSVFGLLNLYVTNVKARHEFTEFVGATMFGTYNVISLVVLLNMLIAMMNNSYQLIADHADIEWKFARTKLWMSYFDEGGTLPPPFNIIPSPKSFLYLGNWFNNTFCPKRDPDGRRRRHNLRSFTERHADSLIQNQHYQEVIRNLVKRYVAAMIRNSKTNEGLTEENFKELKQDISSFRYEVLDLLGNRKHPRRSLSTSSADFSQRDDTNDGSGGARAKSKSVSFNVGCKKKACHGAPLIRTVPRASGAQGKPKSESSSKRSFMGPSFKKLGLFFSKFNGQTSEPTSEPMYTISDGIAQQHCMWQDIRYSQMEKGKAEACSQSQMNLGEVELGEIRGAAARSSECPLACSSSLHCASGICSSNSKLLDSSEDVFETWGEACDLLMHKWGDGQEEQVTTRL
Sequence of endogenous TRPC5-containing channels (Q61056 whole entry partner): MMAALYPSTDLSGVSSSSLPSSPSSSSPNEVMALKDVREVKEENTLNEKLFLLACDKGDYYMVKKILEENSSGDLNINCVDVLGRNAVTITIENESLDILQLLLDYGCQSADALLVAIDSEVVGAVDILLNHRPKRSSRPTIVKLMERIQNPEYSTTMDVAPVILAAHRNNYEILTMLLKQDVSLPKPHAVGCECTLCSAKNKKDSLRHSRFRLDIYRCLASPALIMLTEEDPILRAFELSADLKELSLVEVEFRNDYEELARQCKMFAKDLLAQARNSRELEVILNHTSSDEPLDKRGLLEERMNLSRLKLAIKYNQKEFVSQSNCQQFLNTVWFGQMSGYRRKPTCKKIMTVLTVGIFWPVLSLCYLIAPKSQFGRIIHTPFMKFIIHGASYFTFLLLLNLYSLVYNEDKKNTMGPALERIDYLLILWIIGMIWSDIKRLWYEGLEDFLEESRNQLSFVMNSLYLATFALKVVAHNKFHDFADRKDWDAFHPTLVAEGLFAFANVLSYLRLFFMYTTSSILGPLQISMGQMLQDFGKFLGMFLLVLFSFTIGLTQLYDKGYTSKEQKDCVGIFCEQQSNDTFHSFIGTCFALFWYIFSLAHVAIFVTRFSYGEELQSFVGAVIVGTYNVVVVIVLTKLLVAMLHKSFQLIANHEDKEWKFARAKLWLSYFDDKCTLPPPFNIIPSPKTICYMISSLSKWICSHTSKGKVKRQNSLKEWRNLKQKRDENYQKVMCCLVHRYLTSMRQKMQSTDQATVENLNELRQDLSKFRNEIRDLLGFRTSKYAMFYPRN

| IC50 [2] [µM] | SMILES | effect on Cav1.2 channels [6] | effect on Gd3+-evoked Ca2+ entry (natural flavonoid screen) ([2]; 10 μM, 50 μM Gd3+) | effect on BKCa channels [7] | further results |
| --- | --- | --- | --- | --- | --- |
|  | NCCOB(c1ccccc1)c1ccccc1 [2‐aminoethoxydiphenylborate] |  |  |  | effect on TRPC5 whole-cell current after galangin ([1]; 75 μM, applied after Gd3+ and galangin): further inhibited the current |
| 0.45 | O=c1c(O)c(-c2ccccc2)oc2cc(O)cc(O)c12 [Galangin] | inhibited |  |  | effect on Gd3+-evoked Ca2+ signal (natural product screen) ([2]; 10 μM, 30 min pre-incubation, 50 μM Gd3+, fluo-4): inhibitory; effect in 3T3-L1 cells / on adipocyte differentiation ([3]; ref Jung et al., 2012): anti‐adipogenic effects; effect on Gd3+-evoked TRPC5-mediated whole-cell current ([1]; 10 μM compound, 30 μM Gd3+, Ca2+ or Ba2+ in bath): effective; time to effect on whole-cell current ([1]; 10 μM, 30 μM Gd3+): ≤ 2 min; effect on TRPC5 current stimulated by S1P ([1]; whole-cell, 10 μM compound, 5 μM S1P): effective; reversibility on washout ([1]; whole-cell, 10 μM, Gd3+-evoked current): not readily reversed on washout; IC50 ([4]; fluo-4, 20 μM La3+, read-out: IC50 for inhibition of La3+-evoked Ca2+ entry): 6.05 µM; IC50 ([4]; fluo-4, constitutive activity, read-out: IC50 for inhibition of basal Ca2+): 1.85 µM; effect on TRPC5-mediated current in excised outside-out patches [5]: inhibited |
| 3.9 | O=c1c(O)c(-c2ccc(O)cc2)oc2cc(O)cc(O)c12 [Kaempferol] | stimulators | inhibitors | stimulated |  |
| > 10 | O=c1cc(-c2ccc(O)c(O)c2)oc2cc(O)cc(O)c12 [Luteolin] |  |  |  |  |
| > 10 | O=c1c(O)c(-c2cc(O)c(O)c(O)c2)oc2cc(O)cc(O)c12 [Myricetin] | stimulators |  |  |  |

| SMILES | IC50 [2] [µM] | effect on Cav1.2 channels [6] | effect on Gd3+-evoked Ca2+ entry (natural flavonoid screen) ([2]; 10 μM, 50 μM Gd3+) | effect on BKCa channels [7] | further results |
| --- | --- | --- | --- | --- | --- |
| O=c1c(O)c(-c2ccc(O)c(O)c2)oc2cc(O)cc(O)c12 [Quercetin] | 6.5 | stimulators | inhibitors | stimulated | effect on GABA-evoked ionic currents [8]: inhibited; effect on 3T3-L1 cell growth and apoptosis ([3]; ref Hsu and Yen, 2006): inhibited |
